Experimental data from patent publication US9783527B2, “Indazole ureas and method of use” (AbbVie Inc., priority 2014, dated 2017).

molecular target: human Nav1.7 (Homo sapiens (Human), UniProt Q15858); assay: FRET-based membrane potential assay, recombinant human sodium channel Nav1.7; type: cell-based; settings: HEK293 cells stably expressing recombinant human Nav1.7; depolarization with veratridine (EC80) + scorpion venom
Experimental: FRET-Based Membrane Potential Assays.
Recombinant, Human Sodium Channel, Nav1.7.
Two days prior to the experiment, frozen HEK293 cells stably expressing recombinant human Nav1.7 were quickly thawed and plated at 25,000 cells/well in growth medium [DMEM (Invitrogen #11965) with 10% HI FBS (Invitrogen #10082), 2 mM glutamine, 100 units/mL penicillin, 0.1 mg/mL streptomycin (PSG, Sigma #G1146), and 500 μg/mL Geneticin (Invitrogen #10131)] in black-walled, clear-bottom 384-well poly-D-lysine-coated assay plates (Greiner Bio-One, Frickenhausen, Germany) and incubated in a humidified 5% CO2 incubator at 37° C. On the day of the assay, medium was removed by aspiration, and cells were washed with assay buffer [HBSS (Invitrogen, Carlsbad, Calif.) containing 20 mM HEPES (Invitrogen, Carlsbad, Calif.)]. After washing, 30 μL assay buffer containing the fluorescent voltage-sensor probe CC2-DMPE (Invitrogen, Carlsbad, Calif.) at 20 μM and 0.01% pluronic F-127 (Invitrogen, Carlsbad, Calif.) was added to the cells. Cells were incubated for 40 minutes at room temperature in the dark. Following the incubation, the cells were washed and 30 μL assay buffer containing 2.5 μM DiSBAC2(3) substrate (Invitrogen, Carlsbad, Calif.) and 0.5 mM VABSC-1 (Invitrogen, Carlsbad, Calif.) was added to the cells. The cells were incubated for 90 minutes at room temperature in the dark. Fluorescence readings were made using a FLIPR®^TETRA (Molecular Devices, Sunnyvale Calif.) equipped with voltage-sensor probe optics. At the start of each experiment the optimal (EC80) concentration of depolarizing agent (veratridine) was determined by testing a dilution curve of assay buffer containing veratridine (Sigma-Aldrich, St. Louis, Mo.) and 1 mg/mL scorpion venom (SVqq, from Leiurus quinquestriatus; Sigma-Aldrich, St. Louis, Mo.). […] Test compounds in the daughter plate were diluted to (˜3×) solutions in assay buffer immediately before assaying. Using the FLIPR®^TETRA, 20 μL of the (3×) compound solutions were first added to the cells, then 20 μL of depolarizing solution (3×EC80 veratridine+SVqq) were added 3 minutes later to activate the channel. Changes in fluorescence were measured at wavelengths of 440-480 nm and 565-625 nm over the course of the experimental run. Membrane depolarization was expressed as a ratio of the maximum F440-480 nm/F565-625 nm reading above average baseline F440-480 nm/F565-625 nm reading. IC50 values were calculated from curve fits of the ratio data using a four-parameter logistic Hill equation (Accelrys Assay Explorer 3.3 Client, Accelrys, San Diego, Calif.) with percent inhibition plotted against compound concentration.

Sequence of human Nav1.7 (Q15858 whole entry): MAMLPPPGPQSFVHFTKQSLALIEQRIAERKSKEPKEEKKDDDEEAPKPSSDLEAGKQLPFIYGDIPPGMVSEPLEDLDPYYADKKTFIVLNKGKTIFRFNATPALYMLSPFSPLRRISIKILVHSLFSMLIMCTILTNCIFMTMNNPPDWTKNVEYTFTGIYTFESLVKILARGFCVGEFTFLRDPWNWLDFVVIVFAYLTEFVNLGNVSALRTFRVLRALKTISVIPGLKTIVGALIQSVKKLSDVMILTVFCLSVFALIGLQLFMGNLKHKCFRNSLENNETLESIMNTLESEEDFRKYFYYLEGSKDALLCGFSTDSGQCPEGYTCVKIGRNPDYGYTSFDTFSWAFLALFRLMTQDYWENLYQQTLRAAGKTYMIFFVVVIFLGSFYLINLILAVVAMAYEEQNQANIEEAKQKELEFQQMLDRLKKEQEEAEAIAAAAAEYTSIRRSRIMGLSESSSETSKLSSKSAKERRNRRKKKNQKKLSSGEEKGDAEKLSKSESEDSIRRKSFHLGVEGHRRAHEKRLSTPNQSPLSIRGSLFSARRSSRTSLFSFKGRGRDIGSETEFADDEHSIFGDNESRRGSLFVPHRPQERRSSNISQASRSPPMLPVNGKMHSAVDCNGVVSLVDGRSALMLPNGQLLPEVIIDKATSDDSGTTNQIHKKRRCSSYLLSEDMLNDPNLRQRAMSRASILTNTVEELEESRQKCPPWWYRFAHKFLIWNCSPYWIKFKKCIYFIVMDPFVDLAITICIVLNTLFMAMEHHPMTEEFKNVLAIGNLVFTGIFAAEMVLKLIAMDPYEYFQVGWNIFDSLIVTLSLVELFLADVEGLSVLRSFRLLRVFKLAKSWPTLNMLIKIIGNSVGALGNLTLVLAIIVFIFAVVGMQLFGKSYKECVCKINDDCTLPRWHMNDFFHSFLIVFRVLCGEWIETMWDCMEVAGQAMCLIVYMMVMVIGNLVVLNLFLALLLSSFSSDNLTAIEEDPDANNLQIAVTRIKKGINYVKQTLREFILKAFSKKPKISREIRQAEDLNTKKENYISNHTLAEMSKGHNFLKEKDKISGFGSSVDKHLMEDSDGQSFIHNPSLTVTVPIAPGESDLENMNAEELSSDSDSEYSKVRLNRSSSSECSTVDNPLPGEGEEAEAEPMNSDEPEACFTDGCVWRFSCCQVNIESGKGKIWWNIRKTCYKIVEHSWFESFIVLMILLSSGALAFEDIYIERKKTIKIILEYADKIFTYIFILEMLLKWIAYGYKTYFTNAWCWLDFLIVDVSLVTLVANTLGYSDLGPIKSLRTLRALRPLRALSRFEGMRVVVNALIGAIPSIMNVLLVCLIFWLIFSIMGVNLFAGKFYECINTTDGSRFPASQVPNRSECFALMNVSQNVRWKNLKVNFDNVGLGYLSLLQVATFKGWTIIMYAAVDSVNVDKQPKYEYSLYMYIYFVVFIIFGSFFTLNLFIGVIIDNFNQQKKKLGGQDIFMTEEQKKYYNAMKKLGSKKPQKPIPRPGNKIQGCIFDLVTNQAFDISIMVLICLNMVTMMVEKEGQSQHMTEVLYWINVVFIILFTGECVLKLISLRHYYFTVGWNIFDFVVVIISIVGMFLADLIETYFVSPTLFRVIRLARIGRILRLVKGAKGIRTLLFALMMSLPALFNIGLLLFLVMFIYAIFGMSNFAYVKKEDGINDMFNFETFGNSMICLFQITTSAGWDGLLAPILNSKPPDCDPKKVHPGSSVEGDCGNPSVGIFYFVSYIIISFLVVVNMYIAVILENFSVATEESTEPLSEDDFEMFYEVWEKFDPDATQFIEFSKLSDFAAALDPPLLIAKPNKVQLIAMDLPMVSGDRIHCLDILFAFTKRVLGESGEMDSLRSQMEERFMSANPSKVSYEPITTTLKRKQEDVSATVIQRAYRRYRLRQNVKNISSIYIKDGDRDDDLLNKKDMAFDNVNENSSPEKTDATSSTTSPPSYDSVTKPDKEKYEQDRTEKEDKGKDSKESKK

CS(=O)(=O)N1CCN(c2cccc3c2cnn3-c2ccccc2F)C1=O [Example 6, 1-[1-(2-fluorophenyl)-1H-indazol-4-yl]-3-(methylsulfonyl)imidazolidin-2-one] and CNS(=O)(=O)N1CCN(c2cccc3c2cnn3-c2ccccc2F)C1=O [Example 62, 3-[1-(2-fluorophenyl)-1H-indazol-4-yl]-N-methyl-2-oxoimidazolidine-1-sulfonamide] are within 1.5-fold of each other in IC50: 1300 nM for the first, 1710 nM for the second.

Going from NC(=O)Cn1ccn(-c2cccc3c2cnn3-c2ccccc2F)c1=O [Example 9, 2-{3-[1-(2-fluorophenyl)-1H-indazol-4-yl]-2-oxo-2,3-dihydro-1H-imidazol-1-yl}acetamide] to O=C1NCCN1c1cccc2c1cnn2-c1ccccc1F [Example 57, 1-[1-(2-fluorophenyl)-1H-indazol-4-yl]imidazolidin-2-one], the IC50 rises from 959 nM to 9640 nM (10-fold). The first is the more potent here.

Compared with NS(=O)(=O)CN1CCN(c2cccc3c2cnn3-c2ccccc2F)C1=O [Example 58, 1-{3-[1-(2-fluorophenyl)-1H-indazol-4-yl]-2-oxoimidazolidin-1-yl}methanesulfonamide], CCS(=O)(=O)N1CCN(c2cccc3c2cnn3-c2ccccc2F)C1=O [Example 83, 1-(ethylsulfonyl)-3-[1-(2-fluorophenyl)-1H-indazol-4-yl]imidazolidin-2-one] is 8.7-fold higher in IC50: 2290 nM for the first, 20000 nM for the second.

Going from COCCN1CCN(c2cccc3c2cnn3-c2ccccc2F)C1=O [Example 59, 1-[1-(2-fluorophenyl)-1H-indazol-4-yl]-3-(2-methoxyethyl)imidazolidin-2-one] to CC(C)(O)CN1CCN(c2cccc3c2cnn3-c2ccccc2F)C1=O [Example 64, 1-[1-(2-fluorophenyl)-1H-indazol-4-yl]-3-(2-hydroxy-2-methylpropyl)imidazolidin-2-one], the IC50 rises from 1890 nM to 9520 nM (5-fold). The first is the more potent here.

CC(C)(C)C(=O)N1CCN(c2cccc3c2cnn3-c2ccccc2F)C1=O [Example 60, 1-(2,2-dimethylpropanoyl)-3-[1-(2-fluorophenyl)-1H-indazol-4-yl]imidazolidin-2-one] and CC(C)CCC(=O)N1CCN(c2cccc3c2cnn3-c2ccccc2F)C1=O [Example 76, 1-[1-(2-fluorophenyl)-1H-indazol-4-yl]-3-(4-methylpentanoyl)imidazolidin-2-one] are within 1.5-fold of each other in IC50: 1990 nM for the first, 2290 nM for the second.

O=C1CC(C(=O)N2CCN(c3cccc4c3cnn4-c3ccccc3F)C2=O)C1 [Example 61, 1-[1-(2-fluorophenyl)-1H-indazol-4-yl]-3-[(3-oxocyclobutyl)carbonyl]imidazolidin-2-one] and CC(C)S(=O)(=O)N1CCN(c2cccc3c2cnn3-c2ccccc2F)C1=O [Example 82, 1-[1-(2-fluorophenyl)-1H-indazol-4-yl]-3-(isopropylsulfonyl)imidazolidin-2-one] are within 1.5-fold of each other in IC50: 2240 nM for the first, 2460 nM for the second.

Compared with O=C1NCCN1CCN1CCN(c2cccc3c2cnn3-c2ccccc2F)C1=O [Example 63, 1-[1-(2-fluorophenyl)-1H-indazol-4-yl]-3-[2-(2-oxoimidazolidin-1-yl)ethyl]imidazolidin-2-one], C[C@H]1CCN(C(=O)CN2CCN(c3cccc4c3cnn4-c3ccccc3F)C2=O)C1 [Example 90, 1-[1-(2-fluorophenyl)-1H-indazol-4-yl]-3-{2-[(3S)-3-methylpyrrolidin-1-yl]-2-oxoethyl}imidazolidin-2-one] is 2.4-fold lower in IC50: 4120 nM for the first, 1720 nM for the second. The second is the more potent here.

First: COC[C@H]1CC[C@H](COC)N1C(=O)CN1CCN(c2cccc3c2cnn3-c2ccccc2F)C1=O [Example 65, 1-{2-[(2R,5R)-2,5-bis(methoxymethyl)pyrrolidin-1-yl]-2-oxoethyl}-3-[1-(2-fluorophenyl)-1H-indazol-4-yl]imidazolidin-2-one]
Second: CC(C)OC1CN(C(=O)CN2CCN(c3cccc4c3cnn4-c3ccccc3F)C2=O)C1 [Example 67, 1-[1-(2-fluorophenyl)-1H-indazol-4-yl]-3-[2-(3-isopropoxyazetidin-1-yl)-2-oxoethyl]imidazolidin-2-one]
The IC50 of the first is 3.6-fold lower: 678 nM for the first, 2430 nM for the second. The first is the more potent here.

Compared with O=C(CN1CCN(c2cccc3c2cnn3-c2ccccc2F)C1=O)N1CCN2CCCC2C1 (centres unmarked) [Example 66, 1-[1-(2-fluorophenyl)-1H-indazol-4-yl]-3-[2-(hexahydropyrrolo[1,2-c]pyrazin-2(1H)-yl)-2-oxoethyl]imidazolidin-2-one], CC(C)(O)[C@H]1CCN(C(=O)CN2CCN(c3cccc4c3cnn4-c3ccccc3F)C2=O)C1 [Example 85, 1-[1-(2-fluorophenyl)-1H-indazol-4-yl]-3-{2-[(3S)-3-(2-hydroxypropan-2-yl)pyrrolidin-1-yl]-2-oxoethyl}imidazolidin-2-one] is 15-fold higher in IC50: 804 nM for the first, 12300 nM for the second.

First: CN(CC1CCOCC1)C(=O)CN1CCN(c2cccc3c2cnn3-c2ccccc2F)C1=O [Example 68, 2-{3-[1-(2-fluorophenyl)-1H-indazol-4-yl]-2-oxoimidazolidin-1-yl}-N-methyl-N-(tetrahydro-2H-pyran-4-ylmethyl)acetamide]
Second: CN(CCN1CCOCC1)C(=O)CN1CCN(c2cccc3c2cnn3-c2ccccc2F)C1=O [Example 72, 2-{3-[1-(2-fluorophenyl)-1H-indazol-4-yl]-2-oxoimidazolidin-1-yl}-N-methyl-N-[2-(morpholin-4-yl)ethyl]acetamide]
The IC50 of the first is 2-fold higher: 3570 nM for the first, 1800 nM for the second.

First: CC1CN(C(=O)CN2CCN(c3cccc4c3cnn4-c3ccccc3F)C2=O)CC(C)O1 (centres unmarked) [Example 70, 1-[2-(2,6-dimethylmorpholin-4-yl)-2-oxoethyl]-3-[1-(2-fluorophenyl)-1H-indazol-4-yl]imidazolidin-2-one]
Second: O=C(CN1CCN(c2cccc3c2cnn3-c2ccccc2F)C1=O)N1CC(F)(F)C1 [Example 91, 1-[2-(3,3-difluoroazetidin-1-yl)-2-oxoethyl]-3-[1-(2-fluorophenyl)-1H-indazol-4-yl]imidazolidin-2-one]
The IC50 of the first is 7-fold higher: 12200 nM for the first, 1740 nM for the second. The second is the more potent here.

O=C1N(CC(=O)N2CCCC2CN2CCOCC2)CCN1c1cccc2c1cnn2-c1ccccc1F (centres unmarked) [Example 71, 1-[1-(2-fluorophenyl)-1H-indazol-4-yl]-3-{2-[2-(morpholin-4-ylmethyl)pyrrolidin-1-yl]-2-oxoethyl}imidazolidin-2-one] and O=C(CN1CCN(c2cccc3c2cnn3-c2ccccc2F)C1=O)N1CCC(F)(F)C1 [Example 86, 1-[2-(3,3-difluoropyrrolidin-1-yl)-2-oxoethyl]-3-[1-(2-fluorophenyl)-1H-indazol-4-yl]imidazolidin-2-one] are within 1.5-fold of each other in IC50: 2340 nM for the first, 1960 nM for the second.

Compared with CCOCCNC(=O)CN1CCN(c2cccc3c2cnn3-c2ccccc2F)C1=O [Example 74, N-(2-ethoxyethyl)-2-{3-[1-(2-fluorophenyl)-1H-indazol-4-yl]-2-oxoimidazolidin-1-yl}acetamide], CC(C)CNC(=O)CN1CCN(c2cccc3c2cnn3-c2ccccc2F)C1=O [Example 92, 2-{3-[1-(2-fluorophenyl)-1H-indazol-4-yl]-2-oxoimidazolidin-1-yl}-N-isobutylacetamide] is 4.1-fold lower in IC50: 7540 nM for the first, 1860 nM for the second.

O=C1N(c2cccc3c2cnn3-c2ccccc2F)CCN1S(=O)(=O)C1CCCC1 [Example 77, 1-(cyclopentylsulfonyl)-3-[1-(2-fluorophenyl)-1H-indazol-4-yl]imidazolidin-2-one] and O=C1N(c2cccc3c2cnn3-c2ccccc2F)CCN1S(=O)(=O)C1CCCCC1 [Example 78, 1-(cyclohexylsulfonyl)-3-[1-(2-fluorophenyl)-1H-indazol-4-yl]imidazolidin-2-one] are within 1.5-fold of each other in IC50: 2790 nM for the first, 2940 nM for the second.

First: O=C1N(c2cccc3c2cnn3-c2ccccc2F)CCN1S(=O)(=O)c1cccs1 [Example 79, 1-[1-(2-fluorophenyl)-1H-indazol-4-yl]-3-(2-thienylsulfonyl)imidazolidin-2-one]
Second: CCCS(=O)(=O)N1CCN(c2cccc3c2cnn3-c2ccccc2F)C1=O [Example 81, 1-[1-(2-fluorophenyl)-1H-indazol-4-yl]-3-(propylsulfonyl)imidazolidin-2-one]
The IC50 of the first is 1.8-fold lower: 2270 nM for the first, 4080 nM for the second.

First: CC(C)CS(=O)(=O)N1CCN(c2cccc3c2cnn3-c2ccccc2F)C1=O [Example 80, 1-[1-(2-fluorophenyl)-1H-indazol-4-yl]-3-(isobutylsulfonyl)imidazolidin-2-one]
Second: O=C1N(Cc2ccc(C(F)(F)F)cn2)CCN1c1cccc2c1cnn2-c1ccccc1F [Example 89, 1-[1-(2-fluorophenyl)-1H-indazol-4-yl]-3-{[5-(trifluoromethyl)pyridin-2-yl]methyl}imidazolidin-2-one]
The IC50 of the first is 4.5-fold lower: 2380 nM for the first, 10600 nM for the second. The first is the more potent here.
